Assay results from PubChem BioAssay AID248 (DTP/NCI, 2004).
Inconclusive results and toxic doses are left out. Cut-off read from the data, not from the text of the source: active = T/C of 150% or more; inactive = T/C below 125%.

Test system: L1210 leukemia ip in BDF1 mice, survival T/C
Assay: NCI In Vivo Anticancer Drug Screen. Data for tumor model L1210 Leukemia (intraperitoneal) in B6D2F1 (BDF1) mice
Conditions: endpoint: mean survival time, higher = longer survival
Procedure, shortened: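 In this screen, tumor-bearing mice given compound are compared to those given vehicle, and their survival values are reported as a treated-to-control quotient.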

[1] = dose: 100.0 mg/kg/injection, schedule: Q04DX003 (ip), vehicle: saline
[2] = dose: 100.0 mg/kg/injection, schedule: Q01DX001 (ip), vehicle: saline
[3] = dose: 200.0 mg/kg/injection, schedule: Q01DX001 (ip), vehicle: saline
[4] = dose: 400.0 mg/kg/injection, schedule: Q01DX001 (ip), vehicle: saline
[5] = dose: 25.0 mg/kg/injection, schedule: Q01DX009 (ip), vehicle: saline
[6] = dose: 50.0 mg/kg/injection, schedule: Q01DX009 (ip), vehicle: saline
[7] = dose: 100.0 mg/kg/injection, schedule: Q01DX001 (ip), vehicle: saline with Tween-80
[8] = dose: 25.0 mg/kg/injection, schedule: Q04DX002 (ip), vehicle: Klucel (hydroxypropylcellulose) (HPC)
[9] = dose: 50.0 mg/kg/injection, schedule: Q04DX002 (ip), vehicle: Klucel (hydroxypropylcellulose) (HPC)
[10] = dose: 100.0 mg/kg/injection, schedule: Q04DX002 (ip), vehicle: Klucel (hydroxypropylcellulose) (HPC)
[11] = dose: 100.0 mg/kg/injection, schedule: Q04DX002 (ip), vehicle: saline with Tween-80
[12] = dose: 100.0 mg/kg/injection, schedule: Q01DX009 (ip), vehicle: Klucel (hydroxypropylcellulose) (HPC)
[13] = dose: 200.0 mg/kg/injection, schedule: Q01DX009 (ip), vehicle: Klucel (hydroxypropylcellulose) (HPC)
[14] = dose: 200.0 mg/kg/injection, schedule: Q04DX002 (ip), vehicle: Klucel (hydroxypropylcellulose) (HPC)
[15] = dose: 400.0 mg/kg/injection, schedule: Q04DX002 (ip), vehicle: Klucel (hydroxypropylcellulose) (HPC)
[16] = dose: 200.0 mg/kg/injection, schedule: Q04DX002 (ip), vehicle: saline with Tween-80

Measured: T/C

N#Cc1c(F)c(F)c(C(F)(F)F)c(F)c1F
inactive: dose: 6.0 mg/kg/injection, schedule: Q01DX009 (ip), vehicle: saline with Tween-80 103 % of control | dose: 12.0 mg/kg/injection, schedule: Q01DX009 (ip), vehicle: saline with Tween-80 104 % of control | dose: 25.0 mg/kg/injection, schedule: Q01DX009 (ip), vehicle: saline with Tween-80 93 % of control | dose: 50.0 mg/kg/injection, schedule: Q01DX009 (ip), vehicle: other 103 % of control

COc1ccc(C(C)=O)c(OC)c1C
inactive: [1] 95 % of control | dose: 200.0 mg/kg/injection, schedule: Q04DX003 (ip), vehicle: saline 90 % of control | dose: 400.0 mg/kg/injection, schedule: Q04DX003 (ip), vehicle: saline 98 % of control

NC1CCC(CC(=O)O)CC1 (stereo unspecified)
inactive: [2] 105 % of control | [3] 89 % of control | [4] 96 % of control

O=C(Nc1ccccc1F)Nc1ccc(Cl)cc1Cl
inactive: dose: 100.0 mg/kg/injection, schedule: Q01DX009 (ip), vehicle: saline 100 % of control | dose: 200.0 mg/kg/injection, schedule: Q01DX009 (ip), vehicle: saline 100 % of control | dose: 400.0 mg/kg/injection, schedule: Q01DX009 (ip), vehicle: saline 98 % of control

CCC1CCNCC1
inactive: [5] 113 % of control | [6] 102 % of control

C#CCSC(=N)N
inactive: [5] 101 % of control | [6] 93 % of control | [1] 103 % of control

O=C(O)CNC(=S)Nc1ccc(S(=O)(=O)c2ccc(NC(=S)NCC(=O)O)cc2)cc1
inactive: [2] 102 % of control | [3] 102 % of control | [4] 102 % of control

Nc1ncnc2nc(-c3cccc(CNC(=O)c4ccccc4S(=O)(=O)F)c3)[nH]c12
inactive: dose: 25.0 mg/kg/injection, schedule: Q01DX001 (ip), vehicle: saline with Tween-80 93 % of control | dose: 50.0 mg/kg/injection, schedule: Q01DX001 (ip), vehicle: saline with Tween-80 88 % of control | [7] 87 % of control

O=S(=O)(O)Nc1ccc(Cl)cc1
inactive: [8] 102 % of control | [9] 102 % of control | [10] 102 % of control

[O]=[Sb]([OH])([OH])[c]1ccccc1
inactive: dose: 12.5 mg/kg/injection, schedule: Q04DX002 (ip), vehicle: saline with Tween-80 100 % of control | dose: 25.0 mg/kg/injection, schedule: Q04DX002 (ip), vehicle: saline with Tween-80 100 % of control | dose: 50.0 mg/kg/injection, schedule: Q01DX009 (sc), vehicle: olive oil, sesame oil, peanut oil 97 % of control | dose: 50.0 mg/kg/injection, schedule: Q04DX002 (ip), vehicle: saline with Tween-80 103 % of control | dose: 100.0 mg/kg/injection, schedule: Q01DX009 (sc), vehicle: olive oil, sesame oil, peanut oil 95 % of control | [11] 90 % of control | dose: 100.0 mg/kg/injection, schedule: Q04DX003 (sc), vehicle: olive oil, sesame oil, peanut oil 97 % of control | dose: 200.0 mg/kg/injection, schedule: Q04DX003 (sc), vehicle: olive oil, sesame oil, peanut oil 93 % of control

Oc1cccc2c(NC(=S)Nc3ccccc3)cccc12
inactive: [12] 101 % of control | [10] 96 % of control | [13] 101 % of control | [14] 104 % of control | [15] 100 % of control

O=C(Nc1ccc(-c2nc3nc[nH]c(=O)c3[nH]2)cc1)c1cccc(S(=O)(=O)F)c1
inactive: [7] 96 % of control | dose: 200.0 mg/kg/injection, schedule: Q01DX001 (ip), vehicle: saline with Tween-80 96 % of control | dose: 400.0 mg/kg/injection, schedule: Q01DX001 (ip), vehicle: saline with Tween-80 92 % of control

O=C(O)c1ccc2c(c1)C(=O)c1cc([N+](=O)[O-])ccc1-2
inactive: dose: 100.0 mg/kg/injection, schedule: Q01DX001 (ip), vehicle: carboxymethylcellulose (CMC) 102 % of control | dose: 200.0 mg/kg/injection, schedule: Q01DX001 (ip), vehicle: carboxymethylcellulose (CMC) 102 % of control

O=C1OCc2ccccc2C1O (stereo unspecified)
inactive: [2] 111 % of control | [3] 94 % of control | [4] 94 % of control

Cc1ccc([N+](=O)[O-])cc1NS(=O)(=O)c1cc(Cl)c(Cl)cc1Cl
inactive: [12] 95 % of control | [13] 108 % of control | dose: 400.0 mg/kg/injection, schedule: Q01DX009 (ip), vehicle: Klucel (hydroxypropylcellulose) (HPC) 90 % of control

O=C1NCCCN1C1OC(CO)C(O)C1O (stereo unspecified)
inactive: dose: 100.0 mg/kg/injection, schedule: Q01DX005 (ip), vehicle: saline 107 % of control | dose: 200.0 mg/kg/injection, schedule: Q01DX005 (ip), vehicle: saline 104 % of control

CN(C)S(=O)(=O)c1ccc(N=NN2CCOCC2)cc1
inactive: [11] 115 % of control | [16] 97 % of control | dose: 400.0 mg/kg/injection, schedule: Q04DX002 (ip), vehicle: saline with Tween-80 108 % of control

CC(C)OC(=O)Cc1cccc2ccccc12
inactive: dose: 222.0 mg/kg/injection, schedule: Q01DX Z (ip), vehicle: saline 98 % of control | dose: 333.0 mg/kg/injection, schedule: Q01DX Z (ip), vehicle: saline 88 % of control | dose: 500.0 mg/kg/injection, schedule: Q01DX Z (ip), vehicle: saline 95 % of control

O=C(O)c1cncc(-c2ccccc2)c1
inactive: [11] 104 % of control | [16] 111 % of control

Cc1ccccc1-n1c(C)cc(=O)c(C(=O)Cl)c1C
inactive: dose: 25.0 mg/kg/injection, schedule: Q04DX003 (ip), vehicle: Klucel (hydroxypropylcellulose) (HPC) 95 % of control | dose: 50.0 mg/kg/injection, schedule: Q04DX003 (ip), vehicle: Klucel (hydroxypropylcellulose) (HPC) 95 % of control | dose: 75.0 mg/kg/injection, schedule: Q04DX003 (ip), vehicle: Klucel (hydroxypropylcellulose) (HPC) 97 % of control | dose: 100.0 mg/kg/injection, schedule: Q04DX003 (ip), vehicle: Klucel (hydroxypropylcellulose) (HPC) 103 % of control | dose: 200.0 mg/kg/injection, schedule: Q04DX003 (ip), vehicle: Klucel (hydroxypropylcellulose) (HPC) 110 % of control

CCOC(=S)SCC(=O)c1ccc(Br)cc1
inactive: [10] 101 % of control | [14] 92 % of control | [15] 86 % of control

O=C(NC(C(=O)SC1=NC=NC2=NC=NC21)C(SC1=NC=NC2=NC=NC21)c1cccnc1)c1ccccc1 (stereo unspecified)
active: dose: 37.5 mg/kg/injection, schedule: Q01DX Z (ip), vehicle: saline 153 % of control

COC12C(CC3C4CC=C5CC(OC(C)=O)CCC5(C)C4CCC31C)C(c1ccccc1)=NN2c1ccccc1 (stereo unspecified)
inactive: dose: 12.5 mg/kg/injection, schedule: Q04DX002 (ip), vehicle: Klucel (hydroxypropylcellulose) (HPC) 101 % of control | [8] 104 % of control | [9] 101 % of control

C/C(=C\C(=N\NC(=N)N)c1ccccc1)c1ccccc1
inactive: dose: 1.87 mg/kg/injection, schedule: Q01DX Z (ip), vehicle: carboxymethylcellulose (CMC) 94 % of control | dose: 3.75 mg/kg/injection, schedule: Q01DX Z (ip), vehicle: carboxymethylcellulose (CMC) 97 % of control | dose: 7.5 mg/kg/injection, schedule: Q01DX Z (ip), vehicle: carboxymethylcellulose (CMC) 88 % of control | dose: 7.5 mg/kg/injection, schedule: Q01DX Z (oral), vehicle: carboxymethylcellulose (CMC) 108 % of control | dose: 15.0 mg/kg/injection, schedule: Q01DX Z (ip), vehicle: carboxymethylcellulose (CMC) 98 % of control | dose: 15.0 mg/kg/injection, schedule: Q01DX Z (oral), vehicle: carboxymethylcellulose (CMC) 106 % of control | dose: 30.0 mg/kg/injection, schedule: Q01DX Z (oral), vehicle: carboxymethylcellulose (CMC) 100 % of control | dose: 60.0 mg/kg/injection, schedule: Q01DX Z (oral), vehicle: carboxymethylcellulose (CMC) 108 % of control

CC(=O)OCCn1c2ccccc2c2c(C)c3cnccc3c(C)c21
inactive: dose: 37.5 mg/kg/injection, schedule: Q04DX003 (ip), vehicle: saline 115 % of control | dose: 200.0 mg/kg/injection, schedule: Q04DX003 (ip), vehicle: saline with Tween-80 108 % of control | dose: 300.0 mg/kg/injection, schedule: Q04DX003 (ip), vehicle: saline with Tween-80 102 % of control
active: dose: 150.0 mg/kg/injection, schedule: Q04DX003 (ip), vehicle: saline 154 % of control | dose: 300.0 mg/kg/injection, schedule: Q04DX003 (ip), vehicle: saline 290 % of control
